These results are taken from PMC4837355, “Receptor residence time trumps drug-likeness and oral bioavailability in determining efficacy of complement C5a antagonists” (Scientific Reports, 2016).

One data set in a line: in vivo. The note with it: rat; for F (oral availability): 1 mg/kg i.v. versus 10 mg/kg p.o. On the procedure:
(§1) Paw oedema was induced in male Wistar rats by intraplantar administration of C5aR-PA (350 μg per paw in 100 μL of saline control). Paw swelling (% area change from baseline) was recorded at indicated timepoints. […] C5aR antagonist was administering as an intravenous dose (1 mg/kg via an implanted jugular vein catheter in 50:50 DMSO/saline) versus an oral dose (10 mg/kg in olive oil, via gavage). Plasma was collected at various time points and analyzed. Error bars are means ± SEM normalized to maximal swelling of saline control. *p < 0.05, **p < 0.01 and ***p < 0.001 by student t-test.
(§2) Male Wistar rats (6–8 wk, 250 ± 50 g) were bred at the Animal Resources Centre (Canning Vale, Australia) and housed post-shipment at the Australian Institute for Bioengineering and Nanotechnology (University of Queensland, Brisbane). […] After specific time-points, C5aR-PA was administered into the right hind paw pad (350 μg in 100 μL saline, i.pl). The left hind paw acted as a control, receiving saline only (100 μL). Rear paw thickness and width were measured at 1 h (and periodically over 4 h) post-injection using digital callipers (World Precision Instruments, Sarasota, FL, USA) and swelling was expressed as area (mm^2; thickness × width) and plotted as percentage change from baseline of each individual paw. […] Plasma was collected at various time points (0, 5, 15, 30 min, 1, 2, 3, 4, 6 and 8 h) from the jugular vein catheter and analyzed for antagonist concentrations using LCMS as described. The animal ethics committee of The University of Queensland approved all experiments according to NHMRC guidelines for the care and use of laboratory animals and in accordance with ARRIVE guidelines for reporting experiments involving animals. A total of N animals were used in each experiment as described.
Supplementary Table 1. Pharmacokinetics parameters of C5aR antagonists in
aC5aR antagonist were administered 1 mg/kg i.v. and 10 mg/kg p.o.
Vdss; volume of distribution steady
Cmax; maximal plasma concentration reached
Tmax; time of maximal Cmax
F; Fraction of intact compound absorbed to plasma (oral availability)
Supplementary Table 2. Primer sequences for target genes.

The conditions of data set [1]: in vivo; cited from earlier work.
In data set [2] the target is T1, C5aR (Rattus norvegicus, UniProt P97520).
T1 construct: C5aR-mediated rat paw oedema was induced by intraplantar administration of 350 μg C5aR-PA per hind paw; from tissue; host or cells: living male Wistar rats (hind paw)
T1 sequence (P97520 1-352): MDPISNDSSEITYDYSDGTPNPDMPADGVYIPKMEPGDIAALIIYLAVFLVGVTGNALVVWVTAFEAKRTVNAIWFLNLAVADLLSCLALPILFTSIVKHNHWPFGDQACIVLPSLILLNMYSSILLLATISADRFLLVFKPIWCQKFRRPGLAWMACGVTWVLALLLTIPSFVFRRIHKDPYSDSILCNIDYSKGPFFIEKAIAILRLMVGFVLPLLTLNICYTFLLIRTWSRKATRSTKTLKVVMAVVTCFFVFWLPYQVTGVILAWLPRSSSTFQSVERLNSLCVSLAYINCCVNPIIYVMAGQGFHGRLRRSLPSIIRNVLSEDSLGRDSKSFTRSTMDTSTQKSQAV
Description: C5aR-PA-induced rat paw oedema. Type of data set: in vivo, male Wistar rats. The note with it: for Effect on paw swelling after 2 h / Reduction in paw swelling: 30 mg/kg p.o.; for Reduction in paw swelling: at 30 min post-injection of C5aR-PA. On the procedure:
as §1
as §2, with “C5aR-mediated rat paw oedema was induced by intraplantar administration of 350 μg C5aR-PA per hind paw (Supplementary Fig. 5A). […] Male” for “Male”

In data set [3] the test system is C5aR. Also on record: method as in PMID 18595693. The note with it: inhibition of Ca2+ release versus […] rhC5a on U937 cells; read-out: Antagonist IC50; cited from earlier work.
The target in data set [4] is T2, C5aR (Homo sapiens, UniProt P21730).
T2 sequence (P21730 1-350): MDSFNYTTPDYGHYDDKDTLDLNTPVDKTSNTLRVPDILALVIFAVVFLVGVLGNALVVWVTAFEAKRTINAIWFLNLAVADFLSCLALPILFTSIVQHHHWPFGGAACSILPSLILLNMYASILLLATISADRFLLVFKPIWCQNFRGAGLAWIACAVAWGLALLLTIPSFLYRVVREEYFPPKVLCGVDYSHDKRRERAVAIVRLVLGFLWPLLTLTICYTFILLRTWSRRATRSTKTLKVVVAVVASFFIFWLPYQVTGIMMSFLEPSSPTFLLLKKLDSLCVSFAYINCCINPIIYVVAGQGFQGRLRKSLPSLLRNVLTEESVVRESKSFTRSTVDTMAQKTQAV
In words: Intracellular calcium release assay in HMDM against rhC5a. The note with it: for IC50: HMDM calcium release. In general terms: Calcium assays in cells follow changes in intracellular calcium, usually with a dye or a luminescent sensor.
Description: The concentration-response curves for calcium mobilization induced by rhC5a were determined in the presence of escalating concentrations of each of the three antagonists (Fig. 2D–F). […] Error bars are means ± SEM of three independent experiments (n = 3).
Figure 3 Dependence of antagonist potencies (IC50) on C5a concentration in human monocyte-derived macrophages. […] Calculated pIC50 ± SEM and IC50 values for the three C5aR antagonists are summarized in the table versus concentration of C5a. Error bars are means ± SEM of three independent experiments (n = 3).

Data set [5] concerns the target T2, C5aR. Description: C5a-induced inflammatory gene expression in HMDM (real-time PCR). The note with it: 1 μM antagonist, 10 nM C5a at 16 h post-antagonist treatment. (Real-time PCR tracks product formation cycle by cycle.)
Description: Real-time PCR analyses were conducted to further check the effect of residence time in other assays. […] Gene expression was measured by real-time PCR, normalized against 18S and converted to fold change relative to control.
RNA was extracted from cells using ISOLATE II RNA Kit (Bioline) following manufacturer’s instructions. Real-time PCR was performed using 7900HT real-time with SYBR® Green PCR master mix (Applied Biosystems) and primers. Relative gene expression was normalized against 18S rRNA expression and expressed as fold change against control samples.
The target in data set [6] is T2, C5aR. Description: Washout residence time, calcium release in antagonist-pretreated HMDM. The note with it: HMDM pre-treated 1 μM antagonist 1 h, washed, challenged with 3 nM C5a.
Description: Intracellular calcium release was induced in HMDM as described[40] and measured using a FLIPR instrument (Molecular Devices).
Data set [7] has as its target T2, C5aR.
Description: A scintillation proximity assay was used to measure the affinity of C5aR antagonists as described[39]. […] Radioligand binding was then analyzed using a Microbeta scintillation counter (PerkinElmer).
Data set [8] concerns the target T2, C5aR. Description: In vitro migration (chemotaxis) assay of HMDM. Further details: monocytes were isolated from buffy coats of anonymous donors; endogenous in cells; host or cells: primary human monocyte-derived macrophages (CD14+ monocytes from donor buffy coats, matured with M-CSF). The note with it: antagonist 1 μM, 1 h then washed; 3 nM C5a for 16 h. Type of data set: cell-based. The text has this: Antagonists with a short residence time will be ineffective in this assay, because once the antagonist has dissociated from C5aR, C5a immediately binds and induces migration. […] Chemotactic index is expressed as fold change against control. […] Excess unbound antagonists were washed with serum-free medium and HMDM (0.1 × 10^6 cells/mL) then seeded into 5 μm Transwell inserts (Corning) creating a modified Boyden chamber. […] Migrated cells on the lower side of the membrane were stained with DAPI and counted. The chemotactic index was expressed as fold change versus control.

Data set [9] relates to C5aR. The note with it: inhibition of Ca2+ release versus 0.1nM rhC5a on neutrophils; read-out: Antagonist IC50; cited from earlier work.
Another data set deals with C5a-induced neutropenia. Also on record: method as in PMID 12384495. The note with it: cited from earlier work.
[10] abbreviates: male, Wistar, plasma, intravenous, 1 mg/kg.
Where [11] appears, read: male, Wistar, plasma, iv, 1 mg/kg.
The mark [12] stands for this setting: male, Wistar, plasma, oral, 10 mg/kg.
The mark [13] stands for this setting: male, Wistar, plasma, po, 10 mg/kg.

The term Tmax denotes the time from dosing to the highest level. What is called Cmax is the maximum level reached in the sampled fluid or tissue. For orientation: half-life means how long it takes for the measured level to halve. Broadly, the AUC is concentration integrated over time. Read a low AUC as less exposure. As usually defined, the IC50 is the concentration needed to halve the response being measured. In general, Ki refers to the dissociation constant of the complex between target and ligand, obtained from inhibition or displacement. The low end stands for a stronger hold on the target, the high end for a looser hold on the target. As a reminder, the bioavailability is the share of a dose that reaches the circulation, judged against a reference dose that is usually intravenous. A low value points to poor availability.

The structures appear in SMILES notation. Several values for one entry are separate records, joined by “and”; a condition that tells them apart may be missing. Identical values can stand only once. Like-named read-outs stand apart in the source and are kept apart here.

Turning to `CC(=O)N[C@@H](Cc1ccccc1)C(=O)N[C@H]1CCCNC(=O)[C@H](CCCNC(=N)N)NC(=O)[C@H](Cc2c[nH]c3ccccc23)NC(=O)[C@@H](CC2CCCCC2)NC(=O)[C@@H]2CCCN2C1=O` [3D53, Ac-Phe-[Orn-Pro-D-Cha-Trp-Arg]], the time of peak concentration (Tmax) in the data set “in vivo” (male, Wistar, in vivo, po) is 50 min. In “in vivo” (in vivo), the highest concentration (Cmax) is 17.5 ng/mL, the Vd turned out to be 4.1 L/kg, the clearance is 52.1 mL/min/kg and the half-life amounted to 21.6 min. Besides, the AUC in the data set “in vivo” (in vivo, iv, 1 mg/kg) came out at 323 ng·h/mL. Besides, the area under the curve (AUC) in “in vivo” (in vivo, po, 10 mg/kg) turned out to be 76.6 ng·h/mL. For the same compound, the Safety and tolerability entry in data set [1] was “safe and well tolerated”.

For `CCc1cccc(CC)c1-c1cc(OC(C)C)c2c(n1)CCCC2Nc1ccccc1CCO` (stereo not drawn) [JJ47], the “Effect on paw swelling after 2 h” value on C5aR [2] was “not much different to W54011”. The “Reduction in paw swelling” value at C5aR [2] is 15%. The compound further returned a half-life in the data set “in vivo” (male, Wistar, plasma) of 43.2 min. The Vd in the data set “in vivo” (setting [10]) was 3.5 L/kg. This compound also had a clearance in the data set “in vivo” (setting [10]) of 41 mL/min/kg. Further, the results for the exposure (AUC) in the data set “in vivo” (setting [11]) and in “in vivo” (setting [13]) were 410 ng·h/mL and 501 ng·h/mL, respectively. In the data set “in vivo” (setting [12]), this compound yielded a Cmax of 127 ng/mL. Also, in the data set “in vivo”, the “F (oral availability)” value is 12.2% and ~ 12%. Also, the half-maximal inhibitory concentration (IC50) with C5aR [3] is 7 nM; on C5aR [4] (IC50, C5a 1 nM), 2 nM; on C5aR [4] (IC50, C5a 3 nM) it was 10 nM; at C5aR [4] (IC50, C5a 10 nM), 122 nM; at C5aR [4] (IC50, C5a 30 nM), 509 nM; on C5aR [4] (IC50, C5a 100 nM) it was 632 nM. In addition, the IC50 on C5aR [4] (IC50, C5a 300 nM) is 1070 nM; at C5aR [4] (pIC50 ± SEM, C5a 1 nM), 1.58 nM. The Kb at C5aR [4] was 5.01 nM. Besides, the Antagonist mechanism result at C5aR [4] (C5a concentration-response curves with escalating antagonist, HMDM) is “surmountable antagonists”. Moreover, at C5aR [4] (against rhC5a, calcium release, HMDM), the Schild plot slope is on record as 0.94. Further, on C5aR [5], the “Block of C5a-mediated expression of TNF, IL1B, CCL3 and PTGS2” value is reported as “did not”. Besides, the “Half-life t1/2 ± SEM (residence time on C5aR)” value at C5aR [6] stood at 36 ± 12 min. This compound also showed a Ki at C5aR [7] of 316 nM. Further, the “Block of C5a-induced migration” value at C5aR [8] is recorded as “not effective antagonists”.

As for `COc1ccc2c(c1)C(C(=O)N(Cc1ccc(N(C)C)cc1)c1ccc(C(C)C)cc1)CCC2` (stereo not drawn) [W54011], at C5aR [2] (5 mg/kg per oral), the “Block of C5aR-PA-induced paw swelling” value was “did not block”. In addition, the “Effect on C5aR-PA-induced paw swelling” value at C5aR [2] (10 mg/kg p.o.) was “did not have much effect”. The “Effect on paw swelling after 2 h” value on C5aR [2] is reported as “no longer effective”. For the same compound, on C5aR [2], the “Reduction in paw swelling” value came to 35%. The compound further displayed a half-life in the data set “in vivo” (male, Wistar, plasma) of 124 min. The same compound came in with a Vd in “in vivo” (setting [10]) of 18.3 L/kg. The clearance in the data set “in vivo” (setting [10]) came to 82.8 mL/min/kg. Further, the AUC in “in vivo” (setting [11]) was 212 ng·h/mL; in “in vivo” (setting [13]), 1570 ng·h/mL. This compound also returned a maximum concentration (Cmax) in the data set “in vivo” (setting [12]) of 484 ng/mL. The compound further displayed a bioavailability in the data set “in vivo” (setting [13]) of 74.3%. Also, in the data set “in vivo”, the “F (oral availability)” value was ~ 74%. The IC50 is 3 nM with C5aR [9]; 9 nM at C5aR [4] (IC50, C5a 3 nM); 24 nM on C5aR [4] (IC50, C5a 10 nM); 55 nM at C5aR [4] (IC50, C5a 30 nM); 350 nM at C5aR [4] (IC50, C5a 100 nM); 1460 nM on C5aR [4] (IC50, C5a 300 nM). Also, the IC50 on C5aR [4] (pIC50 ± SEM, C5a 1 nM) was 3.98 nM; on C5aR [4] (pIC50 ± SEM, C5a 3 nM), 7.94 nM. Further, the “Doses blocking C5a-induced gerbil neutropenia” value in the data set with C5a-induced neutropenia is 3 to 30 mg/kg. Besides, the Ki at C5aR [7] is 79.4 nM.
